{"source": "patent US11970521B2", "about": "“Neuroprotective beta amyloid core peptides and peptidomimetic derivatives” (priority 2016, dated 2024)", "key": {"[1]": {"system": "NG108-15 cells expressing α4β2-nAChRs", "test": "Cell stress (ROS) assay, α4β2-nAChR-transfected differentiated NG108-15 cells treated with Aβ1-42", "assay_type": "cell-based, rodent", "settings": "for Aβ1-42-induced ROS, co-treatment with stabilized peptides: daily 100 nM with 100 nM Aβ1-42, FIG. 9B, p<0.05 vs. Aβ1-42 alone", "text": "(§1) In Vitro Neuronal Models. The studies were, performed on the NG108-15 rodent hybrid neuroblastoma cell line and primary hippocampal neuron cultures. The cell line can be differentiated, yielding axonal neurites with presynaptic-like varicosities that have the ability to release acetylcholine via exocytosis in response to stimulation. […] The primary hippocampal neuron cultures provide a physiologically relevant model.\n(§2) Neuroblestoma Clonal Cell Culture and Transfection. Rodent hybrid neuroblastoma NG108-15 cells were used as a model nerve cell system allowing reconstitution with defined target receptors for Aβ. The cells were cultured in Dulbecco's modified Eagle's medium (DMEM) containing 15% fetal bovine serum (FBS) and differentiated in the presence of reduced serum (1% FBS) and 1 mM dibutyryl cyclic AMP for 72 h, Expression vectors (pcDNA3.1) containing mouse sequences for α4 and β2 nAChR subunits (1:4 ratio respectively) were transiently transfected into the cells using FuGENE HD (ThernioFisher, catalog #PRE2311) for 48 h. Mock-transfected NG108-15 cells, exposed only to FuGENE HO and not plasmid DNA, were used as controls.\nCell Stress Assays. Cells were plated, differentiated and treated for 3 days poor to assay. Cell count and fluorescence intensity of reactive oxygen species (ROS)-positive cells were assessed as a means to measure cellular oxidative stress using an Image-IT® LIVE Green Reactive Oxygen Species Detection Kit. In brief, the cells were treated for three days for NG108-15 cultures end five or ten days for primary hippocampal neuronal cultures. The media was changed every day, thus replenishing with fresh Aβ every 24 h, unless otherwise noted. Thereafter, the cells were incubated with carboxy-H2DCFDA (component A) at 37° C. for 30 min. During the last 5 min of incubation, 2 μg/ml of HOECHST stain (component B) was added to assess, in parallel, the integrity of the cell nuclei. The cells were washed twice with HBS and visualized using an Olympus IX81 epifluorescence microscope at excitation/emission of 495) 529 nm (ROS) and 350/461 nm (HOECHST), respectively."}, "[2]": {"target": "T1, α4β2-nAChRs (Mus musculus, UniProt O70174+Q9ERK7)", "T1 construct": "expressed in transfected cells; host or cells: differentiated NG108-15 rodent hybrid neuroblastoma cells, pcDNA3.1 vectors, transient transfection with FuGENE HD", "T1 sequence (O70174 31-629)": "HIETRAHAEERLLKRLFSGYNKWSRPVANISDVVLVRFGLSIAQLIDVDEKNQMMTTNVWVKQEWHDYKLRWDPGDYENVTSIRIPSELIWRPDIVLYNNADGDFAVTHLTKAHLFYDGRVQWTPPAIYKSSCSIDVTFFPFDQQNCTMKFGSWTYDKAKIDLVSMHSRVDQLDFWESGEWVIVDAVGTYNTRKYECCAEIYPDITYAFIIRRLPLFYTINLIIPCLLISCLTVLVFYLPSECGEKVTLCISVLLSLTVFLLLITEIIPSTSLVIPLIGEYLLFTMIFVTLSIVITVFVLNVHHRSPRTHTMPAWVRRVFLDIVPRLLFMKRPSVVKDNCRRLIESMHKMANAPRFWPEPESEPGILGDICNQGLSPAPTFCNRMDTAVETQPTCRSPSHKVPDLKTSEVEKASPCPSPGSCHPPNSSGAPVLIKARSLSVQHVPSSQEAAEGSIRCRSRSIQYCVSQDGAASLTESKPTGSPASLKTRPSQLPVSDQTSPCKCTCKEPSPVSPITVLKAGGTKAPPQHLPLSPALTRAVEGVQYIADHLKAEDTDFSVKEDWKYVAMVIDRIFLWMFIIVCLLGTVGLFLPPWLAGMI", "T1 sequence (Q9ERK7 26-501)": "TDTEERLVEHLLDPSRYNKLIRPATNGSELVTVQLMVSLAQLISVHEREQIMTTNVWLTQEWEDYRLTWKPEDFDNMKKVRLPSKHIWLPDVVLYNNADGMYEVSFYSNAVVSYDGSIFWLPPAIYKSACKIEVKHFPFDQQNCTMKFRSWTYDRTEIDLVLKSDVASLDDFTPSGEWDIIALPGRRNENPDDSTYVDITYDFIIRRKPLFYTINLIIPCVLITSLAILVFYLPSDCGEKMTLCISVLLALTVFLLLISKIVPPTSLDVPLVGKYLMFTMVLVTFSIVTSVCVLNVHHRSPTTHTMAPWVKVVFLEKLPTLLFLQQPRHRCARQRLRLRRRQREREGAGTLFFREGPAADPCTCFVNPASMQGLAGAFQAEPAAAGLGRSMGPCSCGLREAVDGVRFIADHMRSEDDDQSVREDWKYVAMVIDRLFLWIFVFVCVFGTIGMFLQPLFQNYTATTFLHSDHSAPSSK", "test": "Ca2+ imaging (Fluo-4) in varicosities of NG108-15 cells expressing α4β2-nAChRs", "assay_type": "cell-based", "settings": "100 nM; FIG. 13B", "method": "as §2\nCa^2+ Imaging Fluo-4, a Ca^2+ indicator dye, was loaded into cells on coverslips and visualization of [Ca^2+] was done via a Nikon PCM 2000 Cameleon AOTF confocal microscope. Each time-series was normalized to baseline fluorescence intensity at time zero (F/F0). After recording a baseline image series, each treatment was perfused over cells for 2.5 minutes or 15 minutes and quantification of relative fluorescence changes was analyzed through imageJ."}, "[3]": {"system": "primary hippocampal neurons", "test": "Cell survival (cell counts), primary hippocampal neurons", "assay_type": "cell-based, mouse", "settings": "1 μM with 1 μM Aβ1-42; FIG. 10B; p<0.0001", "method": "(§3) Cell Survival. Cell survival was determined by counting cells everyday for 7 or 10 days of treatment. For each condition, all cells in 5 random fields of view were counted and averaged. Percent cell death was calculated based on daily cell counts as a proportion of starting cell count numbers (i.e. day 0)."}, "[4]": {"system": "NG108-15 cells expressing α4β2-nAChRs", "test": "Cell survival (daily cell counts), NG108-15 cells with α4β2-nAChRs", "assay_type": "cell-based, rodent", "settings": "100 nM co-treatment with 100 nM Aβ1-42; FIG. 10A; p<0.0001", "method": "Neuroblestoma Clonal Cell Culture and Transfection. Rodent hybrid neuroblastoma NG108-15 cells were used as a model nerve cell system allowing reconstitution with defined target receptors for Aβ. […] Mock-transfected NG108-15 cells, exposed only to FuGENE HO and not plasmid DNA, were used as controls.\nas §3"}, "[5]": {"system": "NG108-15 cells expressing α4β2-nAChRs", "test": "Cell death (apoptosis) TUNEL assay, α4β2-nAChR-transfected NG108-15 cells", "assay_type": "cell-based, rodent", "settings": "nM co-treatment on day 1, 2 or 3 after start of daily Aβ1-42; FIG. 14A; p<0.0001", "method": "as §2\nCell Death (Apoptosis) Assay. Cells were plated, differentiated and treated for either 3 or 4 days prior to assay. Apoptotic cells were detected as DNA fragmentation by Click-IT TUNEL Alexa fluor 488. In brief, the cells were treated for four days, exchanging media each day. After the fourth day of treatment, the cells were fixed with freshly prepared 4% paraformaldehyde in PBS at room temperature for 20 min and permeabilized with Triton X-100 (0.25% in PBS) for another 20 min. The cultures were then washed twice and incubated with 50 μL of terminal deoxynucleotidyi transferase reaction buffer (Component A) for 10 min at room temperature. […]"}, "[6]": {"system": "mock-transfected NG108-15 cells", "test": "Cell stress (ROS) assay, mock-transfected NG108-15 cells (absent nAChRs) treated with μM Aβ1-42", "assay_type": "cell-based, rodent", "settings": "co-treatment with nM-μM concentrations and 1 μM Aβ1-42; FIG. 6A; p<0.0001", "text": "as §1, §2\nCell Stress Assays. […] Cell count and fluorescence intensity of reactive oxygen species (ROS)-positive cells were assessed as a means to measure cellular oxidative stress using an Image-IT® LIVE Green Reactive Oxygen Species Detection Kit. […]"}, "[7]": {"system": "primary hippocampal neurons", "test": "Cell stress (ROS) assay in primary hippocampal neuron cultures", "assay_type": "cell-based, mouse", "settings": "1 μM with 1 μM Aβ1-42, 5 or 10 days; p<0.0001", "excerpt": "Hippocampal Neuron Culture. All animal procedures followed an tACUC-approved protocol in accordance with animal welfare guidelines, Hippocampal neuron cultures even prepared from neonatal mouse pups (0-2d old) of either gender (roughly equivalent numbers) obtained from established colonies of wild-type B6.SJL (background) mice. Following rapid decapitation, brains were removed into ice-cold Neurobasal A medium (NB) containing B-27 supplement, 5% fetal bovine serum and Gentamicin (serum NB). Hippocampi were then isolated under a stereomicroscope. The hippocampi were digested with papain (Worthington, catalog #35N16202) in Hanks with 10 mM cysteine at 37° C. for 15 mins. The preparations were washed by centrifugation in serum NB. The cells were dissociated using sequential trituration with polished Pasteur pipettes of decreasing diameter and collected by low-speed centrifugation. The dissociated cells were preplated in standard tissue culture dishes to remove adherent non-neuronal cells (glia; fibroblasts) for 10-15 mins. […]"}, "[8]": {"system": "mock-transfected NG108-15 cells", "test": "Cell death (apoptosis) TUNEL assay, NG108-15 cells without nAChRs", "assay_type": "cell-based", "settings": "nM-μM co-treatment over four days with 1 μM Aβ1-42; FIG. 14B; trend of greater reduction at μM", "method": "as §2"}}, "note": "Where no end group is shown, it is not given here. [ ]: non-standard residue; d: D form.", "data": [{"substance": "Capped-D-[Aβcore]: D-enantiomer N-Aβcore with N-terminal acetylation and C-terminal amidation (Ac-[dY][dE][dV][dH][dH][dQ]-NH2; SMILES CC(=O)N[C@H](Cc1ccc(O)cc1)C(=O)N[C@H](CCC(=O)O)C(=O)N[C@@H](C(=O)N[C@H](Cc1c[nH]cn1)C(=O)N[C@H](Cc1c[nH]cn1)C(=O)N[C@H](CCC(N)=O)C(N)=O)C(C)C)", "values": [{"measurement": "Aβ1-42-induced ROS, co-treatment with stabilized peptides", "setting": "[1]", "result": "reduces ROS"}, {"measurement": "Average peak Ca2+ response relative to N-Aβcore", "setting": "[2]", "result": "retains activity"}]}, {"substance": "D-[Aβcore]: N-Aβcore converted from L-configuration to D-configuration for each amino acid ([dY][dE][dV][dH][dH][dQ])", "values": [{"measurement": "Aβ1-42-induced ROS, co-treatment with stabilized peptides", "setting": "[1]", "result": "reduces ROS"}, {"measurement": "Average peak Ca2+ response relative to N-Aβcore", "setting": "[2]", "result": "retains activity"}]}, {"substance": "Tyrosine-Glutamate-Valine-Histidine-Histidine-Glutamine [N-Aβcore]", "values": [{"measurement": "Aβ1-42-induced ROS, co-treatment or post-treatment (rescue)", "setting": "[1]; nM concentrations, co-treatment or rescue for 3-, 2- or 1-day, 100 nM Aβ1-42, FIG. 5A, p<0.0001", "result": "reduced Aβ1-42-induced ROS back to baseline levels"}, {"measurement": "Aβ1-42-induced cell death over 10-day treatments, co-treatment", "setting": "[3]", "result": "protected primary hippocampal neurons against β1-42-induced cell death"}, {"measurement": "Aβ1-42-induced cell death at 7 days, co-treatment", "setting": "[4]", "result": "able to fully protect against Aβ1-42-induced cell death"}, {"measurement": "Aβ1-42-induced apoptosis (TUNEL staining)", "setting": "[5]", "result": "reduced apoptosis compared to Aβ1-42 alone"}, {"measurement": "Aβ1-42-induced oxidative stress (ROS) in absence of nAChRs", "setting": "[6]", "result": "reduced this oxidative stress compared to Aβ1-42 alone"}, {"measurement": "Aβ1-42-induced ROS in primary neurons, co-treatment", "setting": "[7]", "result": "reduced the levels of ROS down to untreated (baseline) levels"}, {"measurement": "Aβ1-42-induced DNA-fragmentation in absence of nAChRs", "setting": "[8]", "result": "reduced DNA-fragmentation compared to Aβ1-42 alone"}]}, {"substance": "capped-N-Aβcore: N-Aβcore with N-terminus capped with an acetyl group and C-terminus with an amide group (Ac-YEVHHQ-NH2)", "values": [{"measurement": "Aβ1-42-induced ROS, co-treatment with stabilized peptides", "setting": "[1]", "result": "reduces ROS"}, {"measurement": "Average peak Ca2+ response relative to N-Aβcore", "setting": "[2]", "result": "retained its potent activity"}]}]}
